# Source: the supplement of paper PMC10733146
# Key:
# Assay in all cases: viability relative to DMSO control (fraction); higher = less drug effect (more viable cells)
# Details in all cases: 48 h
# [1] = system: primary ALL patient cells (S048)
# In short: (§1)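 Primary mononuclear tumour cells (Ficoll-isolated from blood or bone marrow, or processed lymph node; fresh or cryopreserved) were plated at 4 × 10^4 cells per well in 384-well plates with pre-plated compounds at five concentrations, one well each. Medium was RPMI-1640 with penicillin/streptomycin, L-glutamine and human serum, at 37 °C and 5% CO2 for 48 h. Viability was read as CellTiter-Glo luminescence relative to the median of 16 inner DMSO wells.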
# [2] = system: primary AML patient cells (S002)
# In short: as §1
# [3] = system: primary AML patient cells (S011)
# In short: as §1
# [4] = system: primary AML patient cells (S019)
# In short: as §1
# [5] = system: primary AML patient cells (S021)
# In short: as §1
# [6] = system: primary AML patient cells (S025)
# In short: as §1
# [7] = system: primary AML patient cells (S037)
# In short: as §1
# [8] = system: primary AML patient cells (S055)
# In short: as §1
# [9] = system: primary AML patient cells (S081)
# In short: as §1
# [10] = system: primary AML patient cells (S089)
# In short: as §1
# [11] = system: primary AML patient cells (S091)
# In short: as §1
# [12] = system: primary DLBCL patient cells (S049)
# In short: as §1
# [13] = system: primary DLBCL patient cells (S076)
# In short: as §1
# [14] = system: primary FL patient cells (S022)
# In short: as §1
# [15] = system: primary MCL patient cells (S068)
# In short: as §1
# [16] = system: primary T-NHL patient cells (S058)
# In short: as §1
# [17] = system: primary T-PLL patient cells (S008)
# In short: as §1
smiles,measurement,setting,value
N#CC[C@H](C1CCCC1)n1cc(-c2ncnc3[nH]ccc23)cn1 [Ruxolitinib],viability,[1]; 0.024 µM,1.03
same,viability,[1]; 0.12 µM,0.945
same,viability,[1]; 0.6 µM,0.963
same,viability,[1]; 3 µM,0.988
same,viability,[1]; 15 µM,0.852
same,viability,[2]; 0.024 µM,0.982
same,viability,[2]; 0.12 µM,0.788
same,viability,[2]; 0.6 µM,0.851
same,viability,[2]; 3 µM,0.707
same,viability,[2]; 15 µM,0.646
same,viability,[3]; 0.024 µM,1.26
same,viability,[3]; 0.12 µM,0.955
same,viability,[3]; 0.6 µM,1.06
same,viability,[3]; 3 µM,0.919
same,viability,[3]; 15 µM,0.743
same,viability,[4]; 0.024 µM,1.09
same,viability,[4]; 0.12 µM,0.873
same,viability,[4]; 0.6 µM,1.03
same,viability,[4]; 3 µM,0.849
same,viability,[4]; 15 µM,0.716
same,viability,[5]; 0.024 µM,0.919
same,viability,[5]; 0.12 µM,0.801
same,viability,[5]; 0.6 µM,0.844
same,viability,[5]; 3 µM,0.779
same,viability,[5]; 15 µM,0.723
same,viability,[6]; 0.024 µM,0.954
same,viability,[6]; 0.12 µM,0.962
same,viability,[6]; 0.6 µM,1.04
same,viability,[6]; 3 µM,1.02
same,viability,[6]; 15 µM,1.06
same,viability,[7]; 0.024 µM,1.02
same,viability,[7]; 0.12 µM,0.956
same,viability,[7]; 0.6 µM,0.989
same,viability,[7]; 3 µM,0.97
same,viability,[7]; 15 µM,0.965
same,viability,[8]; 0.024 µM,1.01
same,viability,[8]; 0.12 µM,0.961
same,viability,[8]; 0.6 µM,1
same,viability,[8]; 3 µM,1.03
same,viability,[8]; 15 µM,1.05
same,viability,[9]; 0.024 µM,1.02
same,viability,[9]; 0.12 µM,0.9
same,viability,[9]; 0.6 µM,0.951
same,viability,[9]; 3 µM,0.854
same,viability,[9]; 15 µM,0.817
same,viability,[10]; 0.024 µM,0.658
same,viability,[10]; 0.12 µM,0.804
same,viability,[10]; 0.6 µM,0.603
same,viability,[10]; 3 µM,0.686
same,viability,[10]; 15 µM,0.704
same,viability,[11]; 0.024 µM,0.915
same,viability,[11]; 0.12 µM,1.09
same,viability,[11]; 0.6 µM,0.889
same,viability,[11]; 3 µM,1.12
same,viability,[11]; 15 µM,1.28
same,viability,[12]; 0.024 µM,1.03
same,viability,[12]; 0.12 µM,0.91
same,viability,[12]; 0.6 µM,0.994
same,viability,[12]; 3 µM,0.981
same,viability,[12]; 15 µM,1
same,viability,[13]; 0.024 µM,1.05
same,viability,[13]; 0.12 µM,0.823
same,viability,[13]; 0.6 µM,0.82
same,viability,[13]; 3 µM,0.702
same,viability,[13]; 15 µM,0.719
same,viability,[14]; 0.024 µM,0.968
same,viability,[14]; 0.12 µM,0.882
same,viability,[14]; 0.6 µM,1.05
same,viability,[14]; 3 µM,0.908
same,viability,[14]; 15 µM,0.893
same,viability,[15]; 0.024 µM,0.978
same,viability,[15]; 0.12 µM,0.987
same,viability,[15]; 0.6 µM,0.989
same,viability,[15]; 3 µM,1.05
same,viability,[15]; 15 µM,0.947
same,viability,[16]; 0.024 µM,0.983
same,viability,[16]; 0.12 µM,0.887
same,viability,[16]; 0.6 µM,0.924
same,viability,[16]; 3 µM,0.904
same,viability,[16]; 15 µM,0.8
same,viability,[17]; 0.024 µM,0.966
same,viability,[17]; 0.12 µM,1.01
same,viability,[17]; 0.6 µM,0.97
same,viability,[17]; 3 µM,1.09
same,viability,[17]; 15 µM,0.952
